Measurements from PubChem BioAssay AID2116 (The Scripps Research Institute Molecular Screening Center, 2009).
pEC50: −log10 of the molar value.

Molecular target: Mucolipin-3 (Homo sapiens) (UniProt Q8TDD5)
Assay: TRPML3 and TRPML2 channel agonists, cell-based, patch clamp, Fura-2 profiling panel (AID 2116)
Conditions: HEK293 cells expressing TRPML3-YFP, TRPML3 Dose Response

Sequence of Mucolipin-3 (Homo sapiens) (Q8TDD5 whole entry, looked up): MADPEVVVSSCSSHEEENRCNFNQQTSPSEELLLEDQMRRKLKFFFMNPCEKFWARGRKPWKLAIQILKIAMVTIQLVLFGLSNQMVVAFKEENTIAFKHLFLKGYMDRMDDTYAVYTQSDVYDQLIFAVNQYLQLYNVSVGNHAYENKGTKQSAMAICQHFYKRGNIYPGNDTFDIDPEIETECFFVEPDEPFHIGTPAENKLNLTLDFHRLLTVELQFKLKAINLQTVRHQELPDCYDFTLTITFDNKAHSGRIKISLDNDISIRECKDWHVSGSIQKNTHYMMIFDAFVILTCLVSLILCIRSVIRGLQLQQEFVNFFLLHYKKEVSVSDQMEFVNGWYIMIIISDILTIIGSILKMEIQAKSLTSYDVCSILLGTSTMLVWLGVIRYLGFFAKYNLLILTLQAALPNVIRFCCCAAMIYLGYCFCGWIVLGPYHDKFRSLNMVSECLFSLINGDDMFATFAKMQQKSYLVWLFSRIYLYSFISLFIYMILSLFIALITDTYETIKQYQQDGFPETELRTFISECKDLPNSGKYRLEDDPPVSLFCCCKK

| SMILES | pEC50 |
| --- | --- |
| O=S(=O)(NC1CCCCC1N1CCOCC1)c1ccc(Cl)cc1 (configuration not stated) | 6.35 |
| O=S(=O)(Nc1ccccc1N1CCOCC1)c1ccc(Cl)s1 | 5.96 |
